Experimental data from patent publication US12162876B2, “Indazole kinase inhibitor and use thereof” (Tarapeutics Science Inc., priority 2018, dated 2024).
Like-named read-outs stand apart in the source and are kept apart here.

Columns and labels:
[1] = system: BaF3; assay: Cell proliferation (CCK-8, 72 h), parental BaF3; format: cell-based; settings: Mus musculus, parental BaF3 cells
Description: (§1) In this example, human gastrointestinal stromal tumor cell line GIST-T1 (expressing wild-type C-KIT gene) (purchased from Cosmo Bio Co., Ltd. (Japan)), human gastrointestinal stromal tumor cell line GIST-T1-T670I (expressing C-KIT-T670I mutant gene) (constructed by our laboratory with CRISPR technology), mouse […] BaF3 (purchased from ATCC) were used. In addition, in this Example, mouse Tel-cKit-BaF3 (stably expressing C-KIT wild-type kinase), mouse Tel-cKit/T670I-BaF3 (stably expressing cKIT T670I mutant kinase), mouse Tel-PDGFRα-BaF3 (stably expressing PDGFRα kinase), mouse Tel-PDGFRβ-BaF3 (stably expressing PDGFRβ kinase), mouse Tel-VEGFR2-BaF3 (stably expressing VEGFR2 kinase), mouse Tel-FLT3-BaF3 (stably expressing FLT3 kinase) were also used. The above cell lines were all constructed by our laboratory. The construction method was as follows: the human C-KIT, C-KIT T670I, PDGFRα, PDGFRβ, VEGFR2, FLT3 kinase region sequences were amplified by PCR respectively and inserted into MSCV-Puro vector (purchased from Clontech) with N-terminal TEL fragment and/or NPM fragment and/or TPR fragment respectively, which was stably transferred into mouse BaF3 cells by retroviral method, and IL-3 growth factor was removed, and finally the cell lines in which protein was transferred depending on C-KIT, C-KIT/T670I, PDGFRα, PDGFRβ, VEGFR2, FLT3 were obtained. The GIST-T1-T670I (expressing C-KIT-T670I mutant gene) cell line was constructed by our laboratory. The construction method was as follows: the sgRNA targeting near the T670 site of the KIT gene was designed by the CRISPR design tool of the Zhang Feng Laboratory of the Massachusetts Institute of Technology (URL: crispr.mit.edu) and cloned into pSpCas9(BB)-2A-Puro vector (Addgene, USA); the obtained vector and a single-stranded oligonucleotide with T670I mutation near the T670 site were co-transfected into the cells, and after antibiotic selection, they were diluted and cultured in a single cell in a 96-well plate; the T670 site of the cells was sequenced and verified by the Sanger sequencing method.

[2] = system: TEL-cKIT-BaF3; assay: Cell proliferation (CCK-8, 72 h), TEL-cKIT-BaF3; format: cell-based; settings: Mus musculus, BaF3 expressing wild-type C-KIT kinase
Description: as §1

[3] = system: TEL-cKIT/T670I-BaF3; assay: Cell proliferation (CCK-8, 72 h), TEL-cKIT/T670I-BaF3; format: cell-based; settings: Mus musculus, read-out: GI50 TEL-cKIT/T670I-BaF3
Description: as §1

[4] = system: TEL-VEGFR2-BaF3; assay: Cell proliferation (CCK-8, 72 h), TEL-VEGFR2-BaF3; format: cell-based; settings: Mus musculus, BaF3 expressing VEGFR2 kinase
Description: as §1

[5] = system: TEL-PDGFRα-BaF3; assay: Cell proliferation (CCK-8, 72 h), TEL-PDGFRα-BaF3; format: cell-based; settings: Mus musculus, BaF3 expressing PDGFRα kinase
Description: as §1

[6] = system: TEL-PDGFRβ-BaF3; assay: Cell proliferation (CCK-8, 72 h), TEL-PDGFRβ-BaF3; format: cell-based; settings: Mus musculus, BaF3 expressing PDGFRβ kinase
Description: as §1

[7] = system: TEL-FLT3-BaF3; assay: Cell proliferation (CCK-8, 72 h), TEL-FLT3-BaF3; format: cell-based; settings: Mus musculus, BaF3 expressing FLT3 kinase
Description: as §1

[8] = system: GIST-T1; assay: Cell proliferation (CCK-8, 72 h), GIST-T1; format: cell-based; settings: Homo sapiens, GISTT1, GIST-T1 (wild-type C-KIT gene)
Description: as §1

[9] = system: GIST-T1-T670I; assay: Cell proliferation (CCK-8, 72 h), GIST-T1-T670I; format: cell-based; settings: Homo sapiens, GIST-T1-T670I (C-KIT-T670I mutant, Imatinib-resistant)
Description: as §1

[10] = system: TEL-cKIT/T670I-BaF3; assay: TEL-cKIT/T670I-BaF3 cell tumor transplantation mouse model; format: in vivo
Procedure: (§2) (1) 4-6 weeks old Bal b/c female mice were purchased from Beijing Weitong Lihua Experimental Animal Co., Ltd. and were reared in SPF-level laboratories. Drinking water and litter were sterilized by autoclaving. All operations on mice were performed under sterile conditions.
(§3) (2) On day 0, about 5×10^6 TEL-cKIT/T670I-BaF3 or 5×10^6 GIST-T1-T670I cells were injected subcutaneously on the left back of all mice, respectively.
(§4) (3) For the mouse model of TEL-cKIT/T670I-BaF3, starting from day 6, the corresponding mice were orally administered every day methyl cellulose (HKI) vehicle (5 mice); […]; sunitinib (purchased from MedChemExpress, China) at a dose of 40 mg/kg mouse weight (5 mice). For the mouse model of GIST-T1-T670I, starting from day 15, the corresponding mice were orally administered every day methyl cellulose (HKI) vehicle (5 mice); Compound 9 at a dose of 20 mg/kg, 30 mg/kg, 40 mg/kg (5 mice each); sunitinib at a dose of 40 mg/kg mouse weight (5 mice).
(§5) (4) Starting from day 6 (the mouse model of TEL-cKIT/T670I-BaF3) and day 15 (the mouse model of GIST-T1-T670I), the length/width of the subcutaneous tumors was measured with a vernier caliper every day, the body weight of the mice was recorded every day, and the effect of compound 9 on the body weight of the mice was determined respectively.
(§6) (5) The growth trend of […] tumors was calculated, with the calculation method of tumor volume: length×width×width/2 mm^3.

[11] = system: GIST-T1-T670I; assay: GIST-T1-T670I cell tumor transplantation mouse model; format: in vivo; settings: for tumor inhibition rate: 40 mg/kg oral daily
Procedure: as §2, §3, §4, §5, §6

[12] = BaF3 expressing cKIT T670I mutant kinase, 72 h, CCK-8

Row | GI50 [2] [nM] | GI50 [3, 12] [nM] | GI50 [4] [nM] | GI50 [5] [nM] | GI50 [6] [nM] | GI50 [7] [nM] | Structure (SMILES) | GI50 [1] [nM] | GI50 [8] [nM] | GI50 [9] [nM] | GI50 ([3]; BaF3, 72 h) [nM] | tumor inhibition rate ([10]; 40 mg/kg oral daily, with increasing days of treatment) [%] | tumor inhibition rate ([10]; 100 mg/kg oral daily, day 11 after administration) [%] | effect on the body weight of mice ([10]; oral daily) | tumor inhibition rate ([11]; day 28 after administration) [%] | tumor inhibition rate ([11]; with increasing days of treatment) [%] | effect on the body weight of mice ([11]; oral daily)
1 | 35 | 28 | 13 | 2 | 12 | 0.1 | Cc1nc(NC(=O)Cc2cccc(C(F)(F)F)c2)sc1-c1ccc2c(/C=C/c3ccccn3)n[nH]c2c1 [Compound 3, (E)-N-(4-methyl-5-(3-(2-(pyridin-2-yl)vinyl)-1H-indazol-6-yl)thiazol-2-yl)-2-(3-(trifluoromethyl)phenyl)acetamide] | 2310 | – | – | – | – | – | – | – | – | –
2 | 1550 | 6 | 7 | 2 | 1 | 4 | Cc1nc(NC(=O)c2ccncc2)sc1-c1ccc2c(/C=C/c3ccccn3)n[nH]c2c1 [Compound 4, (E)-N-(4-methyl-5-(3-(2-(pyridin-2-yl)vinyl)-1H-indazol-6-yl)thiazol-2-yl) isonicotinamide] | > 10000 | – | – | – | – | – | – | – | – | –
3 | 425 | 9 | 38 | 2 | 11 | < 1 | CC(=O)Nc1ncc(-c2ccc3c(/C=C/c4ccccn4)n[nH]c3c2)s1 [Compound 5, (E)-N-(5-(3-(2-(pyridin-2-yl)vinyl)-1H-indazol-6-yl)thiazol-2-yl)acetamide] | 2920 | – | – | – | – | – | – | – | – | –
4 | 24 | 12 | 5 | 1 | 3 | 2 | Cc1nc(NC(=O)c2cccc(C(F)(F)F)c2)sc1-c1ccc2c(/C=C/c3ccccn3)n[nH]c2c1 [Compound 6, (E)-N-(4-methyl-5-(3-(2-(pyridin-2-yl)vinyl)-1H-indazol-6-yl)thiazol-2-yl)-3-(trifluoromethyl)benzamide] | > 10000 | – | – | – | – | – | – | – | – | –
5 | 191 | 94 | 15 | 2.9 | – | 3 | Cc1nc(NC(=O)Cc2cccc3ccccc23)sc1-c1ccc2c(/C=C/c3ccccn3)n[nH]c2c1 [Compound 7, (E)-N-(4-methyl-5-(3-(2-(pyridin-2-yl)vinyl)-1H-indazol-6-yl)thiazol-2-yl)-2-(naphthalene-1-yl)acetamide] | 3690 | 32 | 65 | – | – | – | – | – | – | –
6 | 480 | 38 | 350 | 1.3 | 3.9 | 48 | Cc1nc(NC(=O)CC2CCNCC2)sc1-c1ccc2c(/C=C/c3ccccn3)n[nH]c2c1 [Compound 11, (E)-N-(4-methyl-5-(3-(2-(pyridin-2-yl)vinyl)-1H-indazol-6-yl)thiazol-2-yl)-2-(piperidin-4-yl)acetamide] | 980 | – | – | – | – | – | – | – | – | –
7 | 137 | 85 | 42 | 7.4 | 18 | 1.6 | Cc1nc(NC(=O)C2CCNCC2)sc1-c1ccc2c(/C=C/c3ccccn3)n[nH]c2c1 [Compound 14, (E)-N-(4-methyl-5-(3-(2-(pyridin-2-yl)vinyl)-1H-indazol-6-yl)thiazol-2-yl) piperidin-4-carboxamide] | 3100 | – | – | – | – | – | – | – | – | –
8 | 25 | 38 | 4 | < 1 | < 1 | 2 | Cc1nc(NC(=O)Nc2cccc(C(F)(F)F)c2)sc1-c1ccc2c(/C=C/c3ccccn3)n[nH]c2c1 [Compound 29, (E)-1-(4-methyl-5-(3-(2-(pyridin-2-yl)vinyl)-1H-indazol-6-yl)thiazol-2-yl)-3-(3-(trifluoromethyl)phenyl)urea] | 105 | – | – | – | – | – | – | – | – | –
9 | 47 | 8 | 12 | 1 | 1 | 0.3 | CC(=O)Nc1nc(C)c(-c2ccc3c(/C=C/c4ccccn4)n[nH]c3c2)s1 [Compound 30, (E)-N-(4-methyl-5-(3-(2-(pyridin-2-yl)vinyl)-1H-indazol-6-yl)thiazol-2-yl) acetamide] | 1460 | – | – | – | – | – | – | – | – | –
10 | – | – | – | – | – | – | Cc1ccc(NC(=O)c2ccc(CN3CCN(C)CC3)cc2)cc1Nc1nccc(-c2cccnc2)n1 [Imaitnib, Imatinib, reference compound] | – | 10 | > 10000 | – | – | – | – | – | – | –

Row | Structure (SMILES) | GI50 [2] [nM] | GI50 [3, 12] [nM] | GI50 [4] [nM] | GI50 [5] [nM] | GI50 [6] [nM] | GI50 [7] [nM] | GI50 [1] [nM] | GI50 [8] [nM] | GI50 [9] [nM] | GI50 ([3]; BaF3, 72 h) [nM] | tumor inhibition rate ([10]; 40 mg/kg oral daily, with increasing days of treatment) [%] | tumor inhibition rate ([10]; 100 mg/kg oral daily, day 11 after administration) [%] | effect on the body weight of mice ([10]; oral daily) | tumor inhibition rate ([11]; day 28 after administration) [%] | tumor inhibition rate ([11]; with increasing days of treatment) [%] | effect on the body weight of mice ([11]; oral daily)
11 | Cc1nc(NC(=O)CN2CCN(C)CC2)sc1-c1ccc2c(/C=C/c3ccccn3)n[nH]c2c1 [Compound 9, (E)-N-(4-methyl-5-(3-(2-(pyridin-2-yl)vinyl)-1H-indazol-6-yl)thiazol-2-yl)-2-(4-methylpiperazin-1-yl)acetamide] | 923 | – | 180 | – | – | 1 | 1400 | 19 | 39 | 9 | ≤ 80 | 100 | no effect | 84.3 | ≤ 80 | no effect
